Measurements: patent US7863449B2, “Modulators of muscarinic receptors” (Vertex Pharmaceuticals Incorporated, priority 2004, dated 2011)

What was measured:
M4 muscarinic receptor = target: T1, M4 muscarinic receptor (Homo sapiens, UniProt P08173); assay: Functional mobilization of intracellular calcium (FLIPR), M4-CHO cells; type: cell-based; details: for Emax: 100% efficacy is the maximum response obtained using Carbachol as a control; for M4 Activity: M4-CHO cells, FLIPR calcium mobilization
T1 construct: expressed in transfected cells; host or cells: CHO (M4-CHO)
T1 sequence (P08173 1-479): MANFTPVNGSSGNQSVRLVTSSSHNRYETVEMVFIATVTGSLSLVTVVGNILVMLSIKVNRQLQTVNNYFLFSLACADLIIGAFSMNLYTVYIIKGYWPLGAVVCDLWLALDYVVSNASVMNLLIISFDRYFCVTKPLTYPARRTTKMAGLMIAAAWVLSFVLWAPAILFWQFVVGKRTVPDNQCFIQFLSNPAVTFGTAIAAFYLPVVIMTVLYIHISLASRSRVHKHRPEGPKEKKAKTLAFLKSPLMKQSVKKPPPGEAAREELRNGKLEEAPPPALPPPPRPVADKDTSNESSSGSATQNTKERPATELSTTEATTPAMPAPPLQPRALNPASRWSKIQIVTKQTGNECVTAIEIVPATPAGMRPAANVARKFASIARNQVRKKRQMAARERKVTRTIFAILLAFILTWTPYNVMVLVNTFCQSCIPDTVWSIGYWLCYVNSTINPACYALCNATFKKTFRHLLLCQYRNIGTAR
Protocol: (§1) Functional Mobilization of Intracellular Calcium to Determine Muscarinic Receptor Activity:
(§2) CHO cells expressing muscarinic receptors (M1 to M5) are grown as monolayers in tissue culture flasks at 37° C. in a humidified atmosphere containing 5% CO2 and passaged every 3-5 days. The growth media is Dulbecco's modified eagles medium (DMEM, Gibco Cat# 12430-054), containing 25 mM Hepes and supplemented with Fetal Bovine Serum (Hyclone, cat# SH30071.03), 0.1 mM of MEM non-essential amino acids (GIBCO, Cat# 11140-050), 1 mM MEM Sodium Pyruvate (GIBCO Cat# 11360-070) and 100 units/ml of Penicillin G and 100 μg/ml of Streptomycin (GIBCO Cat# 15140-122). The recombinant muscarinic receptor cell lines are grown under antibiotic pressure with media containing 25 μg/ml zeocin and 500 μg/ml G418 (M1-CHO), 4 μg/ml puromycin, 50 μg/ml zeocin and 2.5 μg/ml blasticidin (M2 and M4-CHO) or 50 μg/ml zeocin and 4 μg/ml puromycin (M3 and M5-CHO).
(§3) Cells are harvested at 80-90% confluence using Versene (GIBCO Cat# 15040-066), collected by centrifugation and seeded 18-24 hrs prior to running the calcium assay at a density of 5,000-10,000 cells/well in […], clear-bottomed 384-well plates (BD Biocoat, poly-D-lysine, Cat#356663). The day of the experiment, the cells are washed with a plate washer (Bioteck Instruments, ELX 405) using bath1 buffer (140-mM NaCl, 4.5-mM KCl, 2-mM CaCl2, 1-mM MgCl2, 10-mM Hepes-Na, 10-mM Glucose, pH 7.4, with NaOH) containing 1 mM Probenecid. Next, the calcium dye Fluo-3 (25 μl/well of Fluo-3 AM at 4 μM, Molecular Probes F-1241, in Bath 1 buffer containing 1 mM Probenecid) is added to the 25 μl of Bath 1 remaining in each well after the plate wash and the dye is loaded at 37° C. in the tissue culture incubator for 60-90 min. The fluorescent dye is removed using the plate washer with Bath 1 containing 1 mM Probenecid, leaving 25 μl/well of this solution after the wash. Alternatively, cells can be loaded with the calcium indicator from Molecular Devices (Calcium 3 Assay Reagents, Cat # R7181) adding 5 μl of a 5× solution dye in Bath 1 containing 1 mM Probenecid (10 ml per dye flask cat# R7182 to generate a solution 20×) to 20 μl of the same buffer. After loading for 60 min, the experiment can be run without having to remove the dye.
(§4) Compounds are prepared at a 2× fold concentration in a 96-well plate (round bottom, Costar Corning cat# 3656), by reconstituting the pre-spotted compounds in bath 1 containing 1 mM probenecid. The final concentration DMSO is 0.5%, and the amount of DMSO is normalized across the assay plate. To determine an agonist action of the compounds on muscarinic receptors, the reconstituted compounds are added (25 μl compound/well) to the cell assay plate (containing 25 μl/well) using the multi-channel robotic system of the FLIPR 3 Instrument (Molecular Devices, Sunnyvale, Calif.). To determine a functional inhibitory action of the compounds on muscarinic receptors, the reconstituted compounds are added (25 μl compound/well) to the assay plate and pre-incubated for 15 min prior to adding 25 μl of Carbachol at 3× the EC80 for each muscarinic subtype. Alternatively, the compounds can be co-applied simultaneously with the agonist. In both assay modes, the fluorescence is recorded for 60 sec (excitation wavelength is […] and emission wavelength 540 nm) using the FLIPR 3 instrument.
(§5) The potency, efficacy and selectivity of the muscarinic compounds were evaluated by screening the compound activity across the whole family (M1 to M5 cells). Compounds were also screened for activity on other proteins such as other GPCRs and ion channels to determine selectivity on M4 receptors.

M1 muscarinic receptor = target: T2, M1 muscarinic receptor (Homo sapiens, UniProt P11229); assay: Functional mobilization of intracellular calcium (FLIPR), M1-CHO cells; type: cell-based; details: for Emax: 100% efficacy is the maximum response obtained using Carbachol as a control; for M1 Activity: M1-CHO cells, FLIPR calcium mobilization
T2 construct: expressed in transfected cells; host or cells: CHO (M1-CHO)
T2 sequence (P11229 1-460): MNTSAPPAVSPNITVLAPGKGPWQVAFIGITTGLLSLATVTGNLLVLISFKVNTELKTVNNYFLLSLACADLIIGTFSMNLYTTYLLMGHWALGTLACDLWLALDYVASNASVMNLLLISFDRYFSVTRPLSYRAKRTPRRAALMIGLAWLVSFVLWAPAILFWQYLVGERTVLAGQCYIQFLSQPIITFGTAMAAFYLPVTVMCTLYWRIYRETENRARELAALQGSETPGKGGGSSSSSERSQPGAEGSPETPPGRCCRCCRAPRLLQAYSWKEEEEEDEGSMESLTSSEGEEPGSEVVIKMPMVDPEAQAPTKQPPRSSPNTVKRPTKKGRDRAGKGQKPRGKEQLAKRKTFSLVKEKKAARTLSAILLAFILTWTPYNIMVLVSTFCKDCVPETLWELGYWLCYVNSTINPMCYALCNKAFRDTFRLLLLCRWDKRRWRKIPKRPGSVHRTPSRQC
Protocol: as §1, §2, §3, §4, §5

| Structure (SMILES) | Emax (M4 muscarinic receptor) | M4 Activity (M4 muscarinic receptor) | Emax (M1 muscarinic receptor) | M1 Activity (M1 muscarinic receptor) |
| --- | --- | --- | --- | --- |
| CC(=O)N1Cc2ccccc2C2(CCN(Cc3cc4ccccc4s3)CC2)C1 [compound 191] | < 25% | + (activity was measured to be greater than 5.0 μM) | < 25% | + (activity was measured to be greater than 5.0 μM) |
| CCOC(=O)N1CCC(CN2CCC3(CC2)CN(C(=O)Nc2ccccc2)Cc2ccccc23)CC1 [compound 51] | 25 to 100% | +++ (activity was measured to be less than 1.0 μM) | 25 to 100% | +++ (activity was measured to be less than 1.0 μM) |
| CC(=O)N1Cc2ccccc2C2(CCN(C3C4CC5CC(C4)CC3C5)CC2)C1 (centres unmarked) [compound 170] | 25 to 100% | +++ (activity was measured to be less than 1.0 μM) | 25 to 100% | +++ (activity was measured to be less than 1.0 μM) |
| COC(=O)N1CCC(CN2CCC3(CC2)CN(C(C)=O)Cc2ccccc23)CC1 [compound 74] | 25 to 100% | +++ (activity was measured to be less than 1.0 μM) | 25 to 100% | +++ (activity was measured to be less than 1.0 μM) |
| CCOC(=O)N1C2CCC(N3CCC4(CC3)CN(C(=O)OC3CCC3)Cc3ccccc34)CC1CC2 (centres unmarked) [compound 112] | 25 to 100% | +++ (activity was measured to be less than 1.0 μM) | 25 to 100% | +++ (activity was measured to be less than 1.0 μM) |
| CCCC(=O)N1Cc2ccccc2C2(CCN(CC3CCN(C(=O)OCC)CC3)CC2)C1 [compound 184] | 25 to 100% | +++ (activity was measured to be less than 1.0 μM) | 25 to 100% | +++ (activity was measured to be less than 1.0 μM) |
| CCOC(=O)N1CCC(N2CCC3(CC2)CN(C(=O)N2CCCC2)Cc2ccccc23)CC1 [compound 110] | 25 to 100% | +++ (activity was measured to be less than 1.0 μM) | 25 to 100% | +++ (activity was measured to be less than 1.0 μM) |
| CCOC(=O)N1CCC(CN2CCC3(CC2)CN(S(=O)(=O)c2c(C)noc2C)Cc2ccccc23)CC1 [compound 155] | 25 to 100% | +++ (activity was measured to be less than 1.0 μM) | 25 to 100% | +++ (activity was measured to be less than 1.0 μM) |
| CC(=O)N1Cc2ccccc2C2(CCN(Cc3nccs3)CC2)C1 [compound 98] | < 25% | + (activity was measured to be greater than 5.0 μM) | < 25% | + (activity was measured to be greater than 5.0 μM) |
| CCOC(=O)N1C2CCC1CC(N1CCC3(CC1)CN(S(=O)(=O)c1cccc(F)c1)Cc1ccccc13)C2 (centres unmarked) [compound 324] | 25 to 100% | +++ (activity was measured to be less than 1.0 μM) | 25 to 100% | +++ (activity was measured to be less than 1.0 μM) |
| CCOC(=O)N1C2CCC1CC(N1CCC3(CC1)CN(C(=O)Nc1ccc(F)cc1)Cc1ccccc13)C2 (centres unmarked) [compound 132] | 25 to 100% | +++ (activity was measured to be less than 1.0 μM) | 25 to 100% | +++ (activity was measured to be less than 1.0 μM) |
| CCOC(=O)N1CCC(CN2CCC3(CC2)CN(S(C)(=O)=O)Cc2ccccc23)CC1 [compound 70] | 25 to 100% | +++ (activity was measured to be less than 1.0 μM) | 25 to 100% | +++ (activity was measured to be less than 1.0 μM) |
| CCOC(=O)N1CCC(N2CCC3(CC2)CN(S(C)(=O)=O)Cc2ccccc23)CC1 [compound 311] | 25 to 100% | +++ (activity was measured to be less than 1.0 μM) | 25 to 100% | +++ (activity was measured to be less than 1.0 μM) |
| CC(=O)N1Cc2ccccc2C2(CCN(CC3CC4CCC3CC4)CC2)C1 (centres unmarked) [compound 94] | 25 to 100% | +++ (activity was measured to be less than 1.0 μM) | 25 to 100% | ++ (activity was measured to be from 1.0 μM to 5.0 μM) |
| CCOC(=O)N1C2CCC1CC(N1CCC3(CC1)CN(C(=O)c1cccs1)Cc1ccccc13)C2 (centres unmarked) [compound 146] | 25 to 100% | +++ (activity was measured to be less than 1.0 μM) | 25 to 100% | +++ (activity was measured to be less than 1.0 μM) |
| CCOC(=O)N1CCC(CN2CCC3(CC2)CN(C(=O)C(C)C)Cc2ccccc23)CC1 [compound 270] | 25 to 100% | +++ (activity was measured to be less than 1.0 μM) | 25 to 100% | +++ (activity was measured to be less than 1.0 μM) |
| CCOC(=O)N1C2CCC1CC(N1CCC3(CC1)CN(C(=O)C1(C)CC1)Cc1ccccc13)C2 (centres unmarked) [compound 244] | 25 to 100% | +++ (activity was measured to be less than 1.0 μM) | 25 to 100% | +++ (activity was measured to be less than 1.0 μM) |
| CCOC(=O)N1C2CCC1CC(N1CCC3(CC1)CN(c1cccc(Cl)c1)Cc1ccccc13)C2 (centres unmarked) [compound 136] | 25 to 100% | +++ (activity was measured to be less than 1.0 μM) | > 100% | +++ (activity was measured to be less than 1.0 μM) |
| CCOC(=O)N1CCC(N2CCC3(CC2)CN(C(=O)OC)Cc2ccccc23)CC1 [compound 240] | 25 to 100% | +++ (activity was measured to be less than 1.0 μM) | 25 to 100% | +++ (activity was measured to be less than 1.0 μM) |
| C#CCOC(=O)N1C2CCC1CC(N1CCC3(CC1)CN(C(C)=O)Cc1ccccc13)C2 (centres unmarked) [compound 156] | 25 to 100% | +++ (activity was measured to be less than 1.0 μM) | 25 to 100% | +++ (activity was measured to be less than 1.0 μM) |
